# Laboratory results: ChEMBL document CHEMBL5579851, “Synthesis and antifungal evaluation of novel triazole derivatives bearing a pyrazole-methoxyl moiety” (Eur J Med Chem, 2024)
# What was measured:
# [1] = target: T1, Lanosterol 14-alpha demethylase (Candida albicans (strain SC5314 / ATCC MYA-2876) (Yeast), UniProt P10613); experiment: Inhibition of CYP51 in Candida albicans SC5314 assessed as obtusifoliol level at 0.0625 ug/ml after 8 hrs by GC-MS analysis relative to control; design: scale not given: the % may be the effect or the level left; conditions: at 0.0625 µg/mL
# Saccharomyces cerevisiae [2] = experiment: Antifungal activity against recombinant Saccharomyces cerevisiae Y570 overexpressing CaCdr1 assessed as inhibition of fungal growth incubated for 48 hrs by CLSI based broth microdilution assay; format: functional
# Saccharomyces cerevisiae [3] = experiment: Antifungal activity against recombinant Saccharomyces cerevisiae Y2411 overexpressing ScErg11 assessed as inhibition of fungal growth incubated for 48 hrs by CLSI based broth microdilution assay; format: functional
# Candida albicans [4] = experiment: Antifungal activity against Candida albicans SC5314 assessed as inhibition of fungal growth incubated for 48 hrs by CLSI based broth microdilution assay; format: functional
# Saccharomyces cerevisiae [5] = experiment: Antifungal activity against recombinant Saccharomyces cerevisiae Y2711 overexpressing CnErg11 assessed as inhibition of fungal growth incubated for 48 hrs by CLSI based broth microdilution assay; format: functional
# Candida albicans [6] = experiment: Antifungal activity against Candida albicans 10231 assessed as inhibition of fungal growth incubated for 48 hrs by CLSI based broth microdilution assay; format: functional
# [7] = target: T1, Lanosterol 14-alpha demethylase; experiment: Inhibition of CYP51 in Candida albicans SC5314 assessed as eburicol level at 0.0625 ug/ml after 8 hrs by GC-MS analysis relative to control; design: scale not given: the % may be the effect or the level left; conditions: at 0.0625 µg/mL
# [8] = target: T1, Lanosterol 14-alpha demethylase; experiment: Inhibition of CYP51 in Candida albicans SC5314 assessed as ergosterol level at 0.0625 ug/ml after 8 hrs by GC-MS analysis (reference value: 86.2 %); design: scale not given: the % may be the effect or the level left; conditions: at 0.0625 µg/mL
# Candida tropicalis [9] = experiment: Potency index, ratio of fluconazole MIC to test compound MIC for antifungal activity against Candida tropicalis 8915 assessed as inhibition of fungal growth incubated for 48 hrs by CLSI based broth microdilution assay; format: functional
# Candida albicans [10] = experiment: Antifungal activity against Candida albicans SC5314 assessed as inhibition of hyphae length after 3 hrs by inverted microscopic analysis; format: functional, organism-based; conditions: dose 0.0625-1 µg/ml
# [Candida] auris = Antifungal activity against fluconazole-resistant Candida auris 919 assessed as inhibition of fungal growth incubated for 48 hrs by CLSI based broth microdilution assay; format: functional; conditions: Candidozyma auris
# Candida tropicalis [11] = experiment: Antifungal activity against Candida tropicalis 8915 assessed as inhibition of fungal growth incubated for 48 hrs by CLSI based broth microdilution assay; format: functional
# [12] = target: T1, Lanosterol 14-alpha demethylase; experiment: Inhibition of CYP51 in Candida albicans SC5314 assessed as 14alpha-methylfecosterol level at 0.0625 ug/ml after 8 hrs by GC-MS analysis relative to control; design: scale not given: the % may be the effect or the level left; conditions: at 0.0625 µg/mL
# T1 sequence (P10613 whole entry): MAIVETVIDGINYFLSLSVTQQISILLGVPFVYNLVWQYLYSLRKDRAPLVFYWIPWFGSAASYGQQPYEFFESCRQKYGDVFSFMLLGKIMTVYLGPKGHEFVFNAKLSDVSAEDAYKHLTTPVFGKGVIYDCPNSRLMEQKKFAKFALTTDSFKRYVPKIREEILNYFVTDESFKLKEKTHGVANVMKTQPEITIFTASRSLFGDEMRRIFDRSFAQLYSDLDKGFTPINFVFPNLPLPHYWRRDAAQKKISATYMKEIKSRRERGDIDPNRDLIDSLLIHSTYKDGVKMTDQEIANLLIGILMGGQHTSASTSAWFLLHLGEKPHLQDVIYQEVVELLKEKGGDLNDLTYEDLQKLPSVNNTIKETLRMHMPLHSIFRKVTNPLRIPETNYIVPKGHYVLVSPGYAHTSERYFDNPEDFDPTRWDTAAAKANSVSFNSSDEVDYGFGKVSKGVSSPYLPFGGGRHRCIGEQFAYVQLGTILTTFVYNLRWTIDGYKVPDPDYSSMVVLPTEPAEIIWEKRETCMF
compound,measurement,setting,value
C[C@@H](OCc1ccn(Cc2ccc(Cl)cc2)n1)[C@](O)(Cn1cncn1)c1ccc(F)cc1F,Activity,[1],~ 20%
same,MIC,Saccharomyces cerevisiae [2],16 µg/mL
same,MIC,Saccharomyces cerevisiae [3],0.008 µg/mL
same,MIC,Candida albicans [4],≤ 0.125 µg/mL
same,MIC,Saccharomyces cerevisiae [5],0.008 µg/mL
same,MIC,Candida albicans [6],≤ 0.125 µg/mL
same,Activity,[7],~ 20%
same,Activity,[8],0%
same,Ratio,Candida tropicalis [9],256
same,inhibition,Candida albicans [10],Dose-Dependent Effect
same,MIC,[Candida] auris,8 µg/mL
same,MIC,Candida tropicalis [11],0.25 µg/mL
same,Activity,[12],~ 20%
